Measurements as given in patent publication US6448279B1, “Isothiazolone/amine oxide wood preservatives” (Lonza Inc., priority 1999, dated 2002).

Tests used:
Assay in all cases: agar dilution plate method, percent retardation of wood rot fungi
Assay type in all cases: cell-based
[1] = system: T. versicolor (white rot fungi)
Procedure: (§1) The efficacy of aqueous 1,2-benzisothiazolone/amine oxide solutions containing the amine oxides in Table 1 against the wood rot fungi T. versicolor (white rot fungi), G. trabeum (brown rot fungi), P. placenta (brown rot fungi), and C. globosum (soft rot decay fungi) were determined using the agar dilution plate method well known in the art. The water in the solution was evaporated to form an agar/biocide mixture and then tested. Each solution was tested at dilutions ranging from 10 to 5000 ppm of benzisothiazolone. The weight ratio of amine oxide to 1,2-benzisothiazolone was either 20:1 or 10:1 in each solution. The percent retardation of the fungi was determined by the percentage change in the diameter of the fungi on the agar plate (i.e. Percent Retardation=((Diameter of Control)−(Diameter of Treated Fungi))/(Diameter of Control)* 100%).
(§2) The efficacy of aqueous 4,5-dichloro-2-n-octyl-3-isothiazolone/amine oxide solutions containing the amine oxides in Table 2 against the wood rot fungi T. versicolor (white not fungi), G. trabeum (brown rot fungi), P. placenta (brown rot fungi), and C. globosum (soft rot decay fungi) were determined as described in Example 6.

[2] = system: G. trabeum (brown rot fungi)
Procedure: as §1, §2

[3] = system: C. globosum (soft rot decay fungi)
Procedure: as §1, §2

[4] = system: P. placenta (brown rot fungi)
Procedure: as §1, §2

[5] = no amine oxide, 4,5-dichloro-2-n-octyl-isothiazolone 0.5 ppm
[6] = no amine oxide, 4,5-dichloro-2-n-octyl-isothiazolone 5 ppm
[7] = no amine oxide, 4,5-dichloro-2-n-octyl-isothiazolone 50 ppm
[8] = no amine oxide, 4,5-dichloro-2-n-octyl-isothiazolone 100 ppm
[9] = no amine oxide, 4,5-dichloro-2-n-octyl-isothiazolone 250 ppm
[10] = no amine oxide, 4,5-dichloro-2-n-octyl-isothiazolone 500 ppm
[11] = no amine oxide, 4,5-dichloro-2-n-octyl-isothiazolone 750 ppm

CCCCCCCCn1sc(Cl)c(Cl)c1=O [4,5-dichloro-2-n-octyl-isothiazolone, 4,5-dichloro-2-n-octyl-3-isothiazolone]
Percent Retardation T Versicolor [1, 5]: 12% | Percent Retardation T Versicolor [1, 6]: 51% | Percent Retardation T Versicolor [1, 7]: 82% | Percent Retardation T Versicolor [1, 8]: 87% | Percent Retardation T Versicolor [1, 9]: 87% | Percent Retardation T Versicolor [1, 10]: 88% | Percent Retardation T Versicolor [1, 11]: 100% | Percent Retardation G. trabeum [2, 5]: 11% | Percent Retardation G. trabeum [2, 6]: 63% | Percent Retardation G. trabeum [2, 7]: 83% | Percent Retardation G. trabeum [2, 8]: 85% | Percent Retardation G. trabeum [2, 9]: 87% | Percent Retardation G. trabeum [2, 10]: 88% | Percent Retardation G. trabeum [2, 11]: 100% | Percent Retardation C. globosum [3, 5]: 63% | Percent Retardation C. globosum [3, 6]: 60% | Percent Retardation C. globosum [3, 7]: 67% | Percent Retardation C. globosum [3, 8]: 78% | Percent Retardation C. globosum [3, 9]: 89% | Percent Retardation C. globosum [3, 10]: 100% | Percent Retardation C. globosum [3, 11]: 100% | Percent Retardation P. placenta [4, 5]: 42% | Percent Retardation P. placenta [4, 6]: 83% | Percent Retardation P. placenta [4, 7]: 100% | Percent Retardation P. placenta [4, 8]: 100% | Percent Retardation P. placenta [4, 9]: 100% | Percent Retardation P. placenta [4, 10]: 100%
